Results: patent US9458200B2, “Method for producing intermediates for the production of novel macrocycles that are inhibitors of the proteasomic degradation of p27, such as argyrin and derivatives thereof, and uses of said macrocycles” (Gottfried Wilhelm Leibniz Universität Hannover, priority 2008, dated 2016)
≈ marks a conversion by molar mass, not a printed value. Starred links: 1 amine or outer side, 2 acyl side, 3 side chain; linkers in the order of their positions; H or OH if unused. Non-standard residues stand in square brackets, D forms with d. Residues, ends and D or L forms follow the SMILES beside them. Trp(4-OMe) = COc1cccc2[nH]cc(C[C@H](N)C(=O)O)c12; X1 = O=C(c1csc([C@@H](CO)N[*:1])n1)[*:2]; Dha = C=C(N)C(=O)O; Sar = CNCC(=O)O

Legend:
[1] = test system: H15GFP-p27 clone (HeLa-cell line; cervix-carcinoma); assay: GFP-fluorescence per FACS of p27-GFP clone H15GFP-p27; assay type: cell-based; settings: GFP-fluorescence per FACS after 24 h incubation, 500 ng/ml
Description: (§1) The following table summarizes the effects of […]-derivatives B and F on two cancer cell lines, H15 (cervix carcinoma) and SW-480 (colon cancer). In order to test the efficacy, a p27-GFP-clone was used. [table]

H15 (cervix carcinoma) = assay: MIC (visual), serial dilution, H15 cells; assay type: cell-based; settings: minimal concentration of a serial dilution exhibiting a visual effect
Description: as §1

SW-480 (colon cancer) = assay: MIC (visual), serial dilution, SW-480 cells; assay type: cell-based; settings: minimal concentration of a serial dilution exhibiting a visual effect
Description: as §1

[2] = test system: SW-480 (colon cancer cell line); assay: MTT-test, proliferation of SW-480; assay type: cell-based
Experimental: MTT assays were done as previously described (Sasse, F. et al. Argyrins, immunosuppressive cyclic peptides from myxobacteria. I. Production, isolation, physico-chemical and biological properties. J Antibiot (Tokyo) 55, 543-51 (2002)). TUNEL staining of tissue sections was performed on 10 micrometer sections which were deparafinised and treated as recommended by the manufacturer. (In Situ Cell Death Detection Kit, Fluorescein; ROCHE, Cat #11 684 795 910). Flow cytometric analysis of cultured cells was done using a Becton Dickinson fluorescence cytometer as previously described (Malek, N.P. et al. A mouse knock-in model exposes sequential proteolytic pathways that regulate p27^Kip1 in G1 and S phase. Nature 413, 323-7 (2001)). Analysis of the distribution of cells in the cell cycle and the sub-G1 fraction was done using Cell Quest software. A histone-associated-DNA-fragments ELISA was used to determine the number of apoptotic cells according to manufacturers instructions (Roche #11 774425001).

[3] = molecular target: T1, erythrocyte-derived 20S proteasome, chymotrypsin-like activity (Homo sapiens, UniProt P20618+P28074); assay: 20S-Proteasome-Test (manual), chymotrypsin-like substrate; assay type: biochemical
T1 construct: using erythrocyte-derived 20S proteasome; purchased Biomol International PW8720; host or cells: human erythrocytes
Experimental: (§2) Proteasome assays with purified 20S proteasome were performed as previously described (Lightcap, E. S. et al. Proteasome inhibition measurements: clinical application. Clin Chem 46, 673-83 (2000)) using erythrocyte-derived 20S proteasome (Biomol International,#LP PW8720) and fluorometric substrates Succ-LLVY-AMC, BZ-VGR-AMC and Z-Lle-AMC (Biomol International, LP PW9905) as probes according to the manufacturers instructions. Proteasome extraction from cells and tumor sections was done as previously described (Crawford, L. J. et al. Comparative selectivity and specificity of the proteasome inhibitors BzLLLCOCHO, PS-341, and MG-132. Cancer Res 66, 6379-86 (2006)). Briefly cells (MEF or MCF-7) or tissue sample homogenate (tumor sections) were re-suspended in 1 mL ATP/DTT lysis buffer (10 mmol/L Tris-HCl (pH7.8), 5 mmol/L ATP, 0.5 mmol/L DTT, 5 mmol/L MgCl2), and incubated on ice for 10 minutes, followed by sonication for 15 seconds. The lysates were centrifuged at 400×g for 10 min at 4° C., and the resulting supernatant containing proteasomes was stable at −80° C. with the addition of 20% glycerol for at least 1 month. Protein concentration of the samples was measured using a coomassie protein assay (Pierce, Rockford, Ill.).
(§3) Proteasome assays with purified 20S proteasome were performed as previously described (Lightcap et al., 2000) using erythrocyte-derived 20S proteasome (Biomol International,#LP PW8720) and fluorometric substrates Succ-LLVY-AMC, BZ-VGR-AMC and Z-Lle-AMC (Biomol International, LP PW9905). Proteasome extraction from cells and tumor sections was done as previously described (Crawford et al., 2006). For proteasome extraction from whole blood, frozen whole blood cell pellets were thawed and lysed in 2-3 pellet volumes cold lysis buffer (5 mM EDTA, pH 8.0). […] The rate of cleavage of fluorogenic peptide substrates was determined by monitoring the fluorescence of released aminomethylcoumarin using a Victor 1420 Multilabel counter (Wallac) at an excitation wavelength of 395 nm and emission wavelength of 460 nm over a period of 60 min. […]

[4] = molecular target: T2, erythrocyte-derived 20S proteasome, trypsin-like activity (Homo sapiens, UniProt P49720+Q99436); assay: 20S-Proteasome-Test (manual), trypsin-like substrate; assay type: biochemical
T2 construct: using erythrocyte-derived 20S proteasome; purchased Biomol International PW8720; host or cells: human erythrocytes
Experimental: as §2, §3

[5] = molecular target: T3, erythrocyte-derived 20S proteasome, caspase-like activity (Homo sapiens, UniProt P28072+Q99436); assay: 20S-Proteasome-Test (manual), caspase-like substrate; assay type: biochemical
T3 construct: using erythrocyte-derived 20S proteasome; purchased Biomol International PW8720; host or cells: human erythrocytes
Experimental: as §2, §3

20S proteasome = test system: T4, 20S proteasome; assay: Proteasome-assay, overall comparison in words (all three subunits); assay type: biochemical, human; settings: compared with argyrin F
T4 construct: using erythrocyte-derived 20S proteasome; purchased Biomol International PW8720; host or cells: human erythrocytes
Experimental: as §2
Proteasome assays with purified 20S proteasome were performed as previously described (Lightcap et al., 2000) using erythrocyte-derived 20S proteasome (Biomol International,#LP PW8720) and fluorometric substrates Succ-LLVY-AMC, BZ-VGR-AMC and Z-Lle-AMC (Biomol International, LP PW9905). Proteasome extraction from cells and tumor sections was done as previously described (Crawford et al., 2006). For proteasome extraction from whole blood, frozen whole blood cell pellets were thawed and lysed in 2-3 pellet volumes cold lysis buffer (5 mM EDTA, pH 8.0). Lysates were spun down at 4° C. and the supernatant was transferred to a fresh tube. 5 μl was taken for the determination of protein concentration using a coomassie protein assay (Pierce, Rockford, Ill.). Proteasome assays using proteasome purified from cells or tissues were carried out in a 100 μL reaction volume containing 20 μg proteasome extract, 50 mmol/L EDTA and 60 μmol/L fluorogenic substrate (chymotrypsin-like(CT-L), trypsin-like(T-L) or caspase-like (C-L)) in ATP/DTT lysis buffer at 37° C. The assay buffer was supplemented with a final concentration of 0.05% SDS for the evalution of the chymotrypsin-like activity and caspase-like activity. The rate of cleavage of fluorogenic peptide substrates was determined by monitoring the fluorescence of released aminomethylcoumarin using a Victor 1420 Multilabel counter (Wallac) at an excitation wavelength of 395 nm and emission wavelength of 460 nm over a period of 60 min.

Row | Compound | Mean of FSC-H (Log) H15 p27-GFP-clone [1] | MIC (visual) HIS (H15 (cervix carcinoma)) | MIC (visual) SW-480 (SW-480 (colon cancer)) | IC50 ([2]; Homo sapiens, SW480, half-maximal inhibition of proliferation, read-out: IC-50 SW-480) | rel. activ. in % after 20 min. ([3]; conc. in test 200 μmol/L) | rel. activ. in % after 20 min. ([4]; conc. in test 200 μmol/L) | rel. activ. in % after 20 min. ([5]; conc. in test 200 μmol/L) | rel. activ. in % after 20 min. ([3]; conc. in test 100 μmol/L) | rel. activ. in % after 20 min. ([4]; conc. in test 100 μmol/L) | rel. activ. in % after 20 min. ([5]; conc. in test 100 μmol/L) | inhibiting effect on the proteasome, compared in words (20S proteasome) | inhibiting effect on the proteasome, compared in words (20S proteasome; listed as Argyrin Ala alpha) | inhibiting effect on the proteasome, compared in words (20S proteasome; listed as argyrin Ala beta) | IC-50 SW-480 ([2]; half-maximal inhibition of proliferation)
1 | C=C1NC(=O)[C@@H](C)NC(=O)CNC(=O)[C@H](Cc2c[nH]c3cccc(OC)c23)NC(=O)[C@H](Cc2c[nH]c3ccccc23)NC(=O)c2csc(n2)[C@@H](CO)NC(=O)CN(C)C1=O [Argyrin F] (cyclo([Dha][Sar][X1]W[Trp(4-OMe)]G[dA])) | 11.24 | 0.5 µg/mL (≈ 0.595 µM) | 0.2 µg/mL (≈ 0.238 µM) | 0.05 µg/mL (≈ 0.0595 µM) | 15% | 32% | 17% |  |  |  |  |  |  | 
2 | C=C1NC(=O)[C@@H](C)NC(=O)[C@@H](C)NC(=O)[C@H](Cc2c[nH]c3cccc(OC)c23)NC(=O)[C@H](Cc2c[nH]c3ccccc23)NC(=O)c2csc(n2)[C@@H](CO)NC(=O)CN(C)C1=O [Argyrin ala alpha] (cyclo([Dha][Sar][X1]W[Trp(4-OMe)][dA][dA])) |  |  |  |  |  |  |  | 17% | 72% | 11% | higher activities than Argyrin F | slightly less active |  | 
3 | C=C1NC(=O)[C@@H](C)NC(=O)[C@H](C)NC(=O)[C@H](Cc2c[nH]c3cccc(OC)c23)NC(=O)[C@H](Cc2c[nH]c3ccccc23)NC(=O)c2csc(n2)[C@@H](CO)NC(=O)CN(C)C1=O [Argyrin ala beta] (cyclo(A[dA][Dha][Sar][X1]W[Trp(4-OMe)])) |  |  |  |  |  |  |  | 8% | 26% | 7% | higher activities than Argyrin F |  | stronger inhibiting effect on the proteasome than argyrin F | 
4 | Argyrin B | 7.60 | 12 µg/mL | 12 µg/mL |  |  |  |  |  |  |  |  |  |  | Ca. 0.05 μg/ml
